# Reference: US9066938B2, “GPBP-1 inhibition and its therapeutic use” (Fibrostatin S.L., priority 2012, dated 2015)
# Structures can show the parent of a compound that is named as a salt.
# Tests used:
# A549 cells = format: cell-based
# Protocol: FIG. 2. […] Cells were seeded in 96-well plates and treated with the indicated compound combinations. The cellular viability (cell number) was measured with alamarBlue® and arbitrary units of fluorescence after 36 h of treatment (vertical axis).
# FIG. 7. […] A549 cells were seeded on 96-well culture plates and after 4 h were treated with the indicated concentrations of doxorubicin in absence or presence of T12 (50 μM) and/or CFTR-inhibitor-172 (25 μM). Cells were cultured for additional 36 h and cell viability assessed as in FIG. 2.
# A549 human lung adenocarcinoma cancer cells (CLS Cell Lines Service) were used as an ex vivo model for the assessment of anti-tumor activity of specific compounds. Unless otherwise indicated A549 cells were cultured in DMEM: Ham's F12 medium supplemented with 2 mM L-glutamine and 10% fetal bovine serum. A549 cells resistant to doxorubicin (A549-DR) were obtained treating cells with 1 μM for 4 weeks. A549 cells were transfected with a plasmid that expresses GPBP-1 and further selected with G418 (Invitrogen) to obtain a cell line (A549-GPBP) that constitutively expresses GPBP-1.
# Cytotoxicity assays were performed with alamarBlue® reagent (Invitrogen) according to manufacturer's instructions. A549 cells were seeded on 96-well culture plates (7,500 cells/well) and allowed to settle during 4 h. Then, cells were cultured with individual peptidomimetics at concentrations ranging from 0 to 50 μM, in presence of doxorubicin at concentrations ranging from 0 to 10 μM for 36 h. JLSM cells were harvested by treatment with 0.25% trypsin (Lonza) and plated on collagen I coated 96-well black culture plate (Perkin Elmer) at a density of 10.000 cells per cm^2. After 4 h settling, cells were treated with different peptidomimetics (with or without doxorubicin) for 36 h. Subsequently alamarBlue® reagent was added and incubation maintained for 3 h. Fluorescence was measured using 560EX nm/590EM nm filter settings with a SpectraMax GeminiXPS (Molecular Devices). Blank wells containing media were used to determine background fluorescence.
# The activity shown for each compound in Table 1 is the factor by which doxorubicin LC50 is reduced by the compound at a 50-μM concentration in A549 cell cultures. […] The symbols −, −/+, +, ++, +++, ++++ in the third column are used to show relative activities of compounds in a simplified way.
# [1] = system: ovarian cancer cells (OVCAR-3); assay: Response of OVCAR-3 ovarian cancer cells to T12; format: cell-based; conditions: cells that did not increase GPBP expression in response to doxorubicin
# [2] = system: CDKN1A (p21) and DDIT3 (CHOP) genes; assay: qPCR of CDKN1A (p21) and DDIT3 (CHOP) mRNA in A549 cells; format: cell-based, human; conditions: doxorubicin 1 μM, T12 50 μM, 24 h
# Protocol: FIG. 3. T12 enhances doxorubicin-induced expression of CDKN1A (p21) and DDIT3 (CHOP) genes in A549 cells. Cells were treated with doxorubicin (1 μM) and/or T12 (50 μM) for 24 h. Total RNA was isolated, reverse-transcribed, and CDKN1A (p21) and DDIT3 (CHOP) mRNA levels assessed by qPCR using TaqMan™ commercial probes and primers. Results are expressed as relative quantity (RQ) respect to untreated cells. A representative assay is shown.
# Total RNA from cell samples was extracted using Ilustra RNAspin™ Mini (Ge Healthcare) according to the manufacturer's instructions. One μg of total RNA from each sample was converted to cDNA (RT) using the High Capacity cDNA Reverse Transcription Kit (Applied Biosystems). For Real-Time PCR (qPCR), 1.5 μl of cDNA was mixed with TaqMan™ Gene Expression Master Mix and the specific TaqMan™ probes and primers for COL4A3BP/GPBP, DDIT3/CHOP, CDKN1A/p21, PROM1/CD133, NANOG, MMP10 and HPRT1, all from Applied Biosystems. Hypoxanthine-guanine phosphoribosyltransferase (HPRT1) primer was used as endogenous control. qPCR was performed on a StepOnePlus™ Real-Time PCR system (Applied Biosystems) according to manufacturer's recommendations. The relative levels of mRNAs were calculated with the ΔΔCt method using untreated samples as reference (the comparative Ct method).
# [3] = system: cell cycle-related genes in A549 cells; assay: Cell Cycle RT2 Profiler PCR Array in A549 cells; format: cell-based, human; conditions: doxorubicin 1 μM or T12 50 μM, 24 h
# Protocol: FIG. 6. T12 and doxorubicin activate cell cycle-related genes in a similar fashion. A549 cells were treated doxorubicin (1 μM) or T12 (50 μM) for 24 h. Total RNA was purified, reverse-transcribed and subjected to Cell Cycle RT^2 Profiler PCR Array. A, shown are logarithmic scatter plots of relative mRNA levels of treated vs untreated cells. […] B, shown are bar plots of the relative expression (RQ) of the over-expressed genes indicated in A. Results are shown in fold expression respect to untreated cells.
# RNA was purified from cells using the Ilustra RNAspin Mini (GE Healthcare) and the cDNA was prepared using RT^2 First Strand™ cDNA kit (Qiagen). The cDNA from treated or untreated cells was used to screen the Cell Cycle RT^2 Profiler™ PCR Array for human (PAHS-020Z, Qiagen), following manufacturer's procedures (Qiagen). qPCR was performed using RT^2 SYBR® Green ROX™ qPCR Mastermix (Qiagen) and the StepOnePlus™ Real-Time PCR System (Applied Biosystems). qPCR data were analyzed using manufacturer software.
# JLSM cells = assay: Cell viability of JLSM primary cultures (lung epidermoid carcinoma); format: cell-based, human; conditions: 36 h
# Protocol: FIG. 14. T12 sharply reduce JLSM cell viability. A and B, JLSM cells were seeded (10.000 cells per cm^2) on collagen-I coated 96-well culture plate. Cells were settled for 4 h and subjected to the indicated treatments and cellular viability assayed after 36 h. Control bars represent cells without T12 or […]. JLSM cells were obtained from a human lung epidermoid carcinoma biopsy following standard procedures. […] Subsequently, explants were further incubated with 1 mL per well of serum-free B-ALITM air-liquid interface medium from CloneticsTM (B-ALI medium). When cells started to grow, explants were removed and cells passed to a collagen I coated flask with fresh medium. Cultures were kept in a humidified 37° C. incubator with 5% (v/v) CO2 and 95% (v/v) air. Cytotoxicity assays were performed with alamarBlue® reagent (Invitrogen) according to manufacturer's instructions. A549 cells were seeded on 96-well culture plates (7,500 cells/well) and allowed to settle during 4 h. Then, cells were cultured with individual peptidomimetics at concentrations ranging from 0 to 50 μM, in presence of doxorubicin at concentrations ranging from 0 to 10 μM for 36 h. […] Fluorescence was measured using 560EX nm/590EM nm filter settings with a SpectraMax […] […] Blank wells containing media were used to determine background fluorescence.
Structure (SMILES),"A549 cell viability, compound without doxorubicin (A549 cells; 36 h, alamarBlue)","Activity as enhancer of doxorubicin-induced cell death, relative activity symbol (A549 cells; compound at 50 μM, A549 cell cultures)",effect on doxorubicin LC50 for A549 cells (A549 cells; compound combined with doxorubicin),responsiveness of OVCAR-3 cells to the compound [1],induction of CDKN1A (p21) and DDIT3 (CHOP) expression together with doxorubicin [2],"expression of CDKN1A (p21), GADD45A, MDM2 and SERTAD1 [3]","biological activity on JLSM primary cultures, single compound (JLSM cells)"
"COc1ccc(-c2ccc(-c3cccc(C)c3)c(C)c2)c(CCC(=O)O)c1 [T12, 3-[4″-methoxy-3,2′-dimethyl-(1,1′;4′,1″)terphenyl-2″-yl] propionic acid]",did not alter cell viability,+++,reduced doxorubicin LC50 for A549 cells in a dose-dependent manner,not responsive,synergistic,up-regulated,highly sensitive
"COc1cccc2c1C(=O)c1c(O)c3c(c(O)c1C2=O)C[C@@](O)(C(=O)CO)C[C@@H]3O[C@H]1C[C@H](N)[C@H](O)[C@H](C)O1 [doxorubicin, doxorubicin hydrochloride, reference compound]",–,–,–,–,–,up-regulated,virtually resistant
